Experimental data taken from ChEMBL document CHEMBL1139265, “Synthesis and biological evaluation of new glutamic acid-based inhibitors of MurD ligase” (Bioorg Med Chem Lett, 2009).

Tests used:
Escherichia coli [1] = test: Inhibition of Escherichia coli MurD assessed as residual activity at 250 uM
Escherichia coli [2] = test: Inhibition of Escherichia coli MurD assessed as residual activity at 500 uM
[3] = Inhibition of Escherichia coli MurD assessed as residual activity
Escherichia coli [4] = test: Inhibition of Escherichia coli MurE assessed as residual activity at 250 uM
Escherichia coli [5] = test: Inhibition of Escherichia coli MurF assessed as residual activity at 250 uM
Escherichia coli [6] = test: Inhibition of Escherichia coli MurC assessed as residual activity at 250 uM

Activity (Escherichia coli [1]) [%] | Activity (Escherichia coli [2]) [%] | SMILES | also measured
 | 96 | COC(=O)CC[C@H](NC(=O)c1ccc(NCc2cnc3[nH]c(N)nc(=O)c3n2)cc1)C(=O)OC | 
 | 92 | COC(=O)CC[C@H](NC(=O)c1ccc(CNc2ccc3[nH]c(=O)[nH]c(=O)c3c2)cc1)C(=O)OC | 
 | 82 | Nc1nc(N)c2cc(NCc3ccc(C(=O)N[C@H](CCC(=O)O)C(=O)O)cc3)ccc2n1 | 
 | 81 | COC(=O)CC[C@H](NC(=O)c1ccc(CNc2ccc3nc(N)nc(N)c3c2)cc1)C(=O)OC | 
88 |  | O=C(O)CC[C@H](NC(=O)c1ccc(CNc2ccc(/C=C3\SC(=O)NC3=O)cc2)cc1)C(=O)O | 
 | 77 | O=C(O)CC[C@@H](NC(=O)c1ccc(CNc2ccc3[nH]c(=O)[nH]c(=O)c3c2)cc1)C(=O)O | 
 | 87 | COC(=O)CC[C@@H](NC(=O)c1ccc(CNc2ccc3nc(N)nc(N)c3c2)cc1)C(=O)OC | 
 | 80 | Nc1nc(N)c2cc(NCc3ccc(C(=O)N[C@@H](CCC(=O)O)C(=O)O)cc3)ccc2n1 | 
87 |  | O=C(O)CC[C@H](NC(=O)c1ccc(CNc2cccc(/C=C3\SC(=O)NC3=O)c2)cc1)C(=O)O | 
70 |  | O=C(O)CC[C@@H](NC(=O)c1ccc(CNc2ccc(/C=C3\SC(=O)NC3=O)cc2)cc1)C(=O)O | 

More lines, now with the values behind:

SMILES | Activity (Escherichia coli [1]) [%] | Activity (Escherichia coli [2]) [%] | also measured
O=C(O)CC[C@@H](NC(=O)c1ccc(CNc2cccc(/C=C3\SC(=O)NC3=O)c2)cc1)C(=O)O | 85 |  | 
O=C(O)CC[C@@H](NC(=O)c1ccc(CNc2cccc(/C=C3\SC(=S)NC3=O)c2)cc1)C(=O)O |  |  | IC50 [3]: 174 µM; Activity (Escherichia coli [4]): 96%; Activity (Escherichia coli [5]): 79%; Activity (Escherichia coli [6]): 78%
O=C(O)CC[C@H](NC(=O)c1ccc(CNc2ccc(/C=C3\SC(=S)NC3=O)cc2)cc1)C(=O)O | 68 |  | 
Nc1nc(=O)c2nc(CNc3ccc(C(=O)N[C@@H](CCC(=O)O)C(=O)O)cc3)cnc2[nH]1 |  | 95 | 
O=C(O)CC[C@H](NC(=O)c1ccc(CNc2ccc3[nH]c(=O)[nH]c(=O)c3c2)cc1)C(=O)O |  | 81 | 
O=C(O)CC[C@H](NC(=O)c1ccc(CNc2cccc(/C=C3\SC(=S)NC3=O)c2)cc1)C(=O)O |  |  | IC50 [3]: 206 µM; Activity (Escherichia coli [4]): 91%; Activity (Escherichia coli [5]): 77%; Activity (Escherichia coli [6]): 76%
O=C(O)CC[C@@H](NC(=O)c1ccc(CNc2ccc(/C=C3\SC(=S)NC3=O)cc2)cc1)C(=O)O | 74 |  | 
COC(=O)CC[C@@H](NC(=O)c1ccc(CNc2ccc3[nH]c(=O)[nH]c(=O)c3c2)cc1)C(=O)OC |  | 91 | 
